In brackets after ≈: the same amount, converted by molar mass. Bridge positions count the residues as written; N and C are the ends. Square brackets hold non-standard residues; d marks the D form. Peptide text beside a SMILES is read from it. * marks the point of attachment. Heptanoyl(6-Me) = CC(C)CCCCC(=O)*; Heptanoyl = CCCCCCC(=O)*; Octanoyl = CCCCCCCC(=O)*; Orn = NCCC[C@H](N)C(=O)O; dDap = NC[C@@H](N)C(=O)O; Dab = NCC[C@H](N)C(=O)O
Legend:
Assay type in all cases: cell-based
[1] = system: Acinetobacter baumannii ABA19-1; details: ABA19-1
How it was run: (§1)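 MIC by CLSI broth microdilution; MH broth; final drug 64–0.03 mg/L, 2-fold; inoculum (2-4) × 10^5 CFU/mL from 0.5 McFarland suspension of 18-24 h colonies; 35-37°C, 16-20 h; growth controls included.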

[2] = system: Acinetobacter baumannii NCTC 13304 (OXA-27); details: NCTC 13304
How it was run: as §1

[3] = system: Escherichia coli ATCC BAA-2340 (KPC); details: ATCC BAA-2340
How it was run: as §1

[4] = system: Escherichia coli ATCC BAA-2523; details: ATCC BAA-2523
How it was run: as §1

[5] = system: Klebsiella pneumoniae ATCC BAA-1705 (KPC); details: ATCC BAA-1705
How it was run: as §1

[6] = system: Klebsiella pneumoniae KPN+19-15; details: KPN+19-15
How it was run: as §1

[7] = system: Pseudomonas aeruginosa ATCC 27853; details: ATCC 27853
How it was run: as §1

[8] = system: Pseudomonas aeruginosa PAE19-3; details: PAE19-3
How it was run: as §1

[9] = Nephrotoxicity assay: in vitro cytotoxicity of HK-2 cells by CCK-8 assay; details: human, HK-2 cells (human renal), 72 h incubation with drug-containing medium
How it was run: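 Compounds in sterile water, diluted to final 500, 250, 200, 100, 50, 25 and 12.5 µg/mL, were applied for 72 h to human HK-2 kidney cells. Absorbance at 450 nm after 3 h CCK-8 gave viability against untreated wells, and IC50 came from logarithmic regression; three replicates.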

## CCCCCCCC(=O)N[C@@H](CCN)C(=O)N[C@H](C(=O)N[C@@H](CCCN)C(=O)N[C@H]1CCNC(=O)[C@H]([C@@H](C)O)NC(=O)[C@H](CCN)NC(=O)[C@H](CCN)NC(=O)[C@H]([C@@H](C)O)NC(=O)[C@@H](Cc2ccccc2)NC(=O)[C@H](CCN)NC1=O)[C@@H](C)O [Compound 28, Octanoyl-Dab-Thr-Orn-ring(4-10)[Dab-Dab-D-Phe-Thr-Dab-Dab-Thr]] (Octanoyl-[Dab]T[Orn][Dab][Dab][dF]T[Dab][Dab]T; lactam 4-C)
[1]
  MIC: 0.125 µg/mL (≈ 0.105 µM)
[2]
  MIC: 0.06 µg/mL (≈ 0.0504 µM)
[3]
  MIC: ≤0.03 µg/mL
[4]
  MIC: ≤0.03 µg/mL
[5]
  MIC: ≤0.03 µg/mL
[6]
  MIC: ≤0.03 µg/mL
[7]
  MIC: ≤0.03 µg/mL
[8]
  MIC: 0.25 µg/mL (≈ 0.21 µM)
[9]
  IC50 at 72 h: > 500 µg/mL

## CCCCCCC(=O)N[C@@H](CCN)C(=O)N[C@H](C(=O)N[C@H](CN)C(=O)N[C@H]1CCNC(=O)[C@H]([C@@H](C)O)NC(=O)[C@H](CCN)NC(=O)[C@H](CCN)NC(=O)[C@H](CC(C)C)NC(=O)[C@@H](Cc2ccccc2)NC(=O)[C@H](CCN)NC1=O)[C@@H](C)O [Compound 34, Heptanoyl-Dab-Thr-D-Dap-ring(4-10)[Dab-Dab-D-Phe-Leu-Dab-Dab-Thr]] (Heptanoyl-[Dab]T[dDap][Dab][Dab][dF]L[Dab][Dab]T; lactam 4-C)
[1]
  MIC: 0.06 µg/mL (≈ 0.0517 µM)
[2]
  MIC: 0.06 µg/mL (≈ 0.0517 µM)
[3]
  MIC: 0.06 µg/mL (≈ 0.0517 µM)
[4]
  MIC: 0.06 µg/mL (≈ 0.0517 µM)
[5]
  MIC: 0.06 µg/mL (≈ 0.0517 µM)
[6]
  MIC: 0.06 µg/mL (≈ 0.0517 µM)
[7]
  MIC: 0.06 µg/mL (≈ 0.0517 µM)
[8]
  MIC: 0.5 µg/mL (≈ 0.431 µM)
[9]
  IC50 at 72 h: 298 ± 3.7 µg/mL (≈ 256 µM)

## CC(C)CCCCC(=O)N[C@@H](CCN)C(=O)N[C@H](C(=O)N[C@@H](CCCN)C(=O)N[C@H]1CCNC(=O)[C@H]([C@@H](C)O)NC(=O)[C@H](CCN)NC(=O)[C@H](CCN)NC(=O)[C@H](CC(C)C)NC(=O)[C@@H](Cc2ccccc2)NC(=O)[C@H](CCN)NC1=O)[C@@H](C)O [Compound 47, 6-methylheptanoyl-Dab-Thr-Orn-ring(4-10)[Dab-Dab-D-Phe-Leu-Dab-Dab-Thr]] ({Heptanoyl(6-Me)}-[Dab]T[Orn][Dab][Dab][dF]L[Dab][Dab]T; lactam 4-C)
[1]
  MIC: 0.125 µg/mL (≈ 0.104 µM)
[2]
  MIC: 0.06 µg/mL (≈ 0.0499 µM)
[3]
  MIC: 0.03 µg/mL (≈ 0.0249 µM)
[4]
  MIC: 0.03 µg/mL (≈ 0.0249 µM)
[5]
  MIC: ≤0.03 µg/mL
[6]
  MIC: ≤0.03 µg/mL
[7]
  MIC: ≤0.03 µg/mL
[8]
  MIC: 0.25 µg/mL (≈ 0.208 µM)
[9]
  IC50 at 72 h: 358 ± 11.2 µg/mL (≈ 297 µM)
